Experimental data from US20240174618A1, “SUBSTITUTED (2-HETEROARYLOXYPHENYL)SULFONATES, SALTS THEREOF AND THEIR USE AS HERBICIDAL AGENTS” (Bayer Aktiengesellschaft, priority 2021, published 2024).

How the values were obtained:
Type in all cases: in vivo
Oryza sativa (ORYSA) [1] = experiment: F. Post-emergence effect on useful plants, ORYSA; conditions: useful plant
Protocol: (§1) Seeds of monocotyledonous and dicotyledonous weeds and crop plants were placed in sandy loam in plastic or organic planting pots, covered with soil and cultivated in a greenhouse under controlled growth conditions. 2 to 3 weeks after sowing, the test plants were treated at the one-leaf stage. The compounds of the invention, formulated in the form of wettable powders (WP) or as emulsion concentrates (EC), were then sprayed onto the green parts of the plants as aqueous suspension or emulsion with addition of 0.5% additive at a water application rate of 600 l/ha (converted). After the test plants had been kept in the greenhouse under optimum growth conditions for about 3 weeks, the activity of the preparations was rated visually in comparison to untreated controls.
(§2) For example, • 100% efficacy=plants have died, • 0% action=like untreated control plants.
(§3) Tables F1a to F4 below show the effects of selected compounds of the general formula (I) according to table 1 on various useful plants at an application rate corresponding to 320 g/ha or less, which were obtained by the experimental procedure mentioned above.

Zea mays (ZEAMX) = experiment: F. Post-emergence effect on useful plants, ZEAMX; conditions: useful plant
Protocol: as §1, §2, §3

Avena fatua (AVEFA) = experiment: C. Herbicidal pre-emergence efficacy, AVEFA; conditions: 320 g/ha, scored after about 3 weeks
Text: (§4) Seeds of monocotyledonous and dicotyledonous weed plants and crop plants were placed in plastic or organic planting pots and covered with soil. The compounds of the invention, formulated in the form of wettable powders (WP) or as emulsion concentrates (EC), were then applied to the surface of the covering soil as aqueous suspension or emulsion with addition of 0.5% additive at a water application rate equivalent to 600 l/ha (converted). After the treatment, the pots were placed in a greenhouse and kept under good growth conditions for the test plants. After about 3 weeks, the efficacy of the preparations was scored visually in comparison with untreated controls as percentages. For example, • 100% efficacy=plants have died, • 0% efficacy=like untreated control plants.
Tables C1a to C14b below show the effects of selected compounds of the general formula (I) according to table 1 on various harmful plants at an application rate corresponding to 320 g/ha or less, which were obtained by the experimental procedure mentioned above.

Oryza sativa (ORYSA) [2] = experiment: D. Pre-emergence effect on useful plants, ORYSA; conditions: useful plant
Text: as §4
(§5) Tables D1a to D5b below show the effects of selected compounds of the general formula (I) according to table 1 on various useful plants at an application rate corresponding to 320 g/ha or less, which were obtained by the experimental procedure mentioned above.

[3] = tested on: Matricaria inodora (MATIN); experiment: B. Herbicidal post-emergence efficacy, MATIN; conditions: 1280 g/ha
Protocol: Seeds of mono- and dicotyledonous weed plants were placed in plastic pots in sandy loam soil (doubly sown with in each case one species of mono- or dicotyledonous weed plants per pot), covered with soil and cultivated in a greenhouse under controlled growth conditions. 2 to 3 weeks after sowing, the test plants were treated at the one-leaf stage. The compounds of the invention, formulated in the form of wettable powders (WP) or as emulsion concentrates (EC), were applied onto the green parts of the plants as aqueous suspension or emulsion with addition of 0.5% additive at a water application rate of 600 liters per hectare (converted). After the test plants had been kept in the greenhouse under optimum growth conditions for about 3 weeks, the activity of the preparations was rated visually in comparison to untreated controls.
For example, • 100% efficacy=plants have died, • 0% efficacy=like untreated control plants
Tables B1a to B12c below show the effects of selected inventive compounds of the general formula (I) according to table 1 on various harmful plants at an application rate corresponding to 1280 g/ha or less, which were obtained by the experimental procedure mentioned above.

Lolium rigidum (LOLRI) = experiment: E. Herbicidal post-emergence efficacy, LOLRI; conditions: application rate 320 g/ha
Protocol: as §1, §2
Tables E1a to E12b below show the effects of selected compounds of the general formula (I) according to table 1 on various harmful plants at an application rate corresponding to 320 g/ha or less, which were obtained by the experimental procedure mentioned above.

Glycine max (GLXMA) [4] = experiment: F. Post-emergence effect on useful plants, GLXMA; conditions: useful plant, application rate 80 g/ha
Protocol: as §1, §2, §3

Glycine max (GLXMA) [5] = experiment: D. Pre-emergence effect on useful plants, GLXMA; conditions: useful plant
Text: as §4, §5

Brassica napus (BRSNW) = experiment: D. Pre-emergence effect on useful plants, BRSNW; conditions: useful plant
Text: as §4, §5

Row | SMILES | Post-emergence efficacy against ORYSA in % (Oryza sativa (ORYSA) [1]; application rate 80 g/ha) | Post-emergence efficacy against ZEAMX in % (Zea mays (ZEAMX); application rate 80 g/ha) | Pre-emergence efficacy against AVEFA (Avena fatua (AVEFA)) | also measured
1 | O=S(=O)(CCCCl)Oc1ccccc1Oc1ncc(Cl)cn1 [Example I-2] | 0% | 20% | 100% | 
2 | CCCCS(=O)(=O)Oc1ccccc1Oc1ncc(Cl)cn1 [Example I-6] |  |  | 80% | 
3 | CC(C)CS(=O)(=O)Oc1ccccc1Oc1ncc(Cl)cn1 [Example I-7, [2-(5-Chloropyrimidin-2-yl)oxyphenyl] 2-methylpropane-1-sulfonate] |  |  | 90% | 
4 | O=S(=O)(CCCC(F)(F)F)Oc1ccccc1Oc1ncc(Cl)cn1 [Example I-10] |  |  | 90% | Post-emergence efficacy against LOLRI in % (Lolium rigidum (LOLRI)): 90%
5 | O=S(=O)(CCCCl)Oc1cccc(F)c1Oc1ncc(Cl)cn1 [Example I-13] | 10% | 20% |  | Post-emergence efficacy against GLXMA in % (Glycine max (GLXMA) [4]): 10%; Pre-emergence efficacy against ORYSA in % (Oryza sativa (ORYSA) [2]; application rate 80 g/ha): 10%; Post-emergence efficacy against ZEAMX in % (Zea mays (ZEAMX); application rate 320 g/ha): 20%; Pre-emergence efficacy against GLXMA in % (Glycine max (GLXMA) [5]; application rate 80 g/ha): 10%; Pre-emergence efficacy against GLXMA in % (Glycine max (GLXMA) [5]; application rate 320 g/ha): 20%
6 | O=S(=O)(CCCCl)Oc1c(F)cccc1Oc1ncc(Cl)cn1 [Example I-14] |  |  | 80% | 
7 | O=S(=O)(CCCC(F)(F)F)Oc1c(Cl)cccc1Oc1ncc(Br)cn1 [Example I-34] |  |  |  | Pre-emergence efficacy against GLXMA in % (Glycine max (GLXMA) [5]; application rate 80 g/ha): 0%

Further lines, with some results ahead:

Row | Post-emergence efficacy against ORYSA in % (Oryza sativa (ORYSA) [1]; application rate 80 g/ha) | Post-emergence efficacy against ZEAMX in % (Zea mays (ZEAMX); application rate 80 g/ha) | SMILES | Pre-emergence efficacy against AVEFA (Avena fatua (AVEFA)) | also measured
8 | 10% | 10% | CCCS(=O)(=O)Oc1ccccc1Oc1ncc(Cl)cn1 [Example I-3] |  | Pre-emergence efficacy against ORYSA in % (Oryza sativa (ORYSA) [2]; application rate 80 g/ha): 20%
9 | 20% |  | O=S(=O)(CCCCl)Oc1ccccc1Oc1ncc(F)cn1 [Example I-5] | 80% | Post-emergence efficacy against MATIN [3]: 90%; Post-emergence efficacy against LOLRI in % (Lolium rigidum (LOLRI)): 90%
10 | 20% |  | O=S(=O)(CCC(F)(F)F)Oc1ccccc1Oc1ncc(Cl)cn1 [Example I-8] | 90% | Post-emergence efficacy against LOLRI in % (Lolium rigidum (LOLRI)): 80%
11 | 10% | 20% | O=S(=O)(CCl)Oc1ccccc1Oc1ncc(Cl)cn1 [Example I-9] |  | Post-emergence efficacy against ORYSA in % (Oryza sativa (ORYSA) [1]; application rate 320 g/ha): 10%; Pre-emergence efficacy against ORYSA in % (Oryza sativa (ORYSA) [2]; application rate 80 g/ha): 0%; Post-emergence efficacy against ZEAMX in % (Zea mays (ZEAMX); application rate 320 g/ha): 20%
12 | 0% |  | O=S(=O)(CCCCCl)Oc1ccccc1Oc1ncc(Cl)cn1 [Example I-15] |  | Post-emergence efficacy against ORYSA in % (Oryza sativa (ORYSA) [1]; application rate 320 g/ha): 20%
13 | 0% | 20% | O=S(=O)(CC1CC1)Oc1ccccc1Oc1ncc(Cl)cn1 [Example I-23] | 90% | 
14 | 0% | 20% | CCCCCS(=O)(=O)Oc1ccccc1Oc1ncc(Cl)cn1 [Example I-24] |  | Post-emergence efficacy against ORYSA in % (Oryza sativa (ORYSA) [1]; application rate 320 g/ha): 0%; Pre-emergence efficacy against ORYSA in % (Oryza sativa (ORYSA) [2]; application rate 80 g/ha): 0%; Pre-emergence efficacy against ORYSA in % (Oryza sativa (ORYSA) [2]; application rate 320 g/ha): 20%; Pre-emergence efficacy against BRSNW in % (Brassica napus (BRSNW); application rate 80 g/ha): 0%; Pre-emergence efficacy against BRSNW in % (Brassica napus (BRSNW); application rate 320 g/ha): 0%
15 | 0% |  | CC(C)CCS(=O)(=O)Oc1ccccc1Oc1ncc(Cl)cn1 [Example I-25] |  | Pre-emergence efficacy against ORYSA in % (Oryza sativa (ORYSA) [2]; application rate 80 g/ha): 0%; Pre-emergence efficacy against GLXMA in % (Glycine max (GLXMA) [5]; application rate 80 g/ha): 0%
16 |  | 20% | O=S(=O)(CCC(F)(F)F)Oc1c(Cl)cccc1Oc1ncc(Br)cn1 [Example I-32] |  | Pre-emergence efficacy against GLXMA in % (Glycine max (GLXMA) [5]; application rate 80 g/ha): 0%; Pre-emergence efficacy against GLXMA in % (Glycine max (GLXMA) [5]; application rate 320 g/ha): 0%
17 |  | 0% | C=CCS(=O)(=O)Oc1ccccc1Oc1ncc(Cl)cn1 [Example I-36] |  | Post-emergence efficacy against ZEAMX in % (Zea mays (ZEAMX); application rate 320 g/ha): 0%; Pre-emergence efficacy against GLXMA in % (Glycine max (GLXMA) [5]; application rate 80 g/ha): 0%
